“Also recorded” adds a separate entry of the source.
Tests used:
[1] = COS release using membrane inlet mass spectrometry (MIMS); format: physicochemical; conditions: precursor 50 μM, NAC 0.25 mM (5 equiv.), pH 7.4 phosphate buffer saline with DTPA, 37° C.
Experimental: (§1) COS was analyzed using a Hiden HPR-40 MIMS system with a sample cell and membrane probe that have been optimized to detect gases dissolved in aqueous solution as described previously. Cline et al., 2011. A stock solution of N-acetyl-cysteine (25 mM) was prepared in DI water. RSSH precursor stock solutions (5 mM) were prepared in DMSO. These solutions were degassed by purging with nitrogen for 10 min before COS release analysis. Typically, 20 mL phosphate buffer solution (10 mM) was added to the sample cell, degassed and purged with a continuous flow of argon for 15 min. N-acetyl cysteine (200 μL, 25 mM) and RSSH precursor (200 μL, 5 mM) were then injected using a gas tight syringe and ion current at m/z 60 (COS^+) were collected for 2 h (source pressure was approximately 1×10^−7 to 5×10^−7 Torr).
as §1, with “(COS*)” for “(COS^+)”

[2] = Stability and intermolecular reactivity of control compound 8 by UPLC-MS; format: physicochemical; conditions: 100 μM, 37° C.
Experimental: FIG. 11 is an UPLC-MS chromatogram of 8 (100 μM) incubated in pH 7.4 ammonium bicarbonate buffer at 37° C. Aliquots taken at various times were quenched with 1% formic acid and analyzed by UPLC-MS.
Aliquots (200 μL) were taken at specified time points, quenched with 1% formic acid (200 μL) and analyzed using UPLC-MS.
FIG. 13 is UPLC-MS chromatograms of control compound 8 (100 μM) reaction with NAC (500 μM) in pH 7.4 ammonium bicarbonate (50 mM) with the metal chelator DTPA (100 μM) at 37° C. Aliquots (200 μL) were taken at specified time points, quenched with 1% formic acid (200 μL) and analyzed using UPLC-MS;

H9c2 cells = assay: H9c2 cell protection from H2O2-mediated oxidative stress, SYTOX Green nucleic acid stain; format: cell-based, rat; conditions: 2 h pretreatment (150 μM for 8), then H2O2 200 μM
Experimental: Cells were seeded at a density of 1×10^4 cells/well. After 24 h, precursor 7b or byproduct 2b is added in 20 μL volumes using DMSO: H2O (<0.01% DMSO). Cells were incubated for 2 h before media was removed and the cells gently washed with PBS (pH 7.4). Then, 180 μL of fresh media and 20 μL H2O2 diluted in H2O were added before cells were incubated for an additional 1 h. After removing this media, 100 μL of media containing 3 μM SYTOX™ Green nucleic acid stain was added, and the cells incubated for 2 h before fluorescence readings were obtained at 485Ex/538Em (Step 1). Finally, an additional 100 μL of media containing 3 μM SYTOX™ and 0.2% Triton X-100 was added in order to permeabilize all cells and incubated for 1 h before fluorescence values measured (Step 2). The relative % cells surviving was calculated as a 100% minus the ratio of the fluorescence value of Step 1 over Step 2 (% cells surviving=100%−(FL538 (Step 1)/FL538 (Step 2)). Fluorescence values for vehicle-treated, non-H2O2-exposed wells were treated as background cell death and this value is added to the % cell survival for each subsequent group.
See Hofgaard et al., 2006, for general procedures. […] After removing this media, 100 μL of media containing 3 μM SYTOX® Green nucleic acid stain was added, and the cells incubated for 2 h before fluorescence readings were obtained at 485Ex/538Em (Step 1). […]

Structure (SMILES): CCCN(C)C(=O)SSC(C)(C)C(NC(C)=O)C(=O)OC (centres unmarked) [control compound 8, Methyl 2-acetamido-3-methyl-3-((methyl(propyl)carbamoyl)disulfaneyl)butanoate]
- COS release (m/z=60 signal) [1]: Relatively slow COS release
- RSSH release via intermolecular reaction with thiol ([2]; NAC 500 μM, pH 7.4 ammonium bicarbonate buffer): does not release RSSH via intermolecular reactions
- reaction with n-butylamine (RSSH release via intermolecular reaction) ([2]; n-BuNH2 500 μM (5 equiv.), pH 7.4 ammonium bicarbonate:acetonitrile (9:1), at least over 2 h): no reactivity; also recorded: lack of reaction
- stability / RSSH release at pH 7.4 ([2]; pH 7.4 ammonium bicarbonate buffer): No RSSH release; also recorded: stable under these conditions and does not produce RSSH
- protection against H2O2-mediated toxicity (SYTOX) (H9c2 cells): protective effects against H2O2-mediated toxicity, but to a lesser extent compared with 7b

From patent US11584712B2, “Alkylamine-substituted perthiocarbamates as dual precursors to hydropersulfide and carbonyl sulfide” (The Johns Hopkins University, priority 2020, dated 2023)
